Measurements: patent US20080318880A1, “Neoadjuvant treatment of Breast Cancer” (The University of Manitoba, priority 2002, published 2008)
“And” between values parts separate entries of the source, which are not always exact repeats. Identical values can stand only once.

Test system: inflammatory or T3 to T4 breast cancer
Assay: Phase II clinical trial of neoadjuvant DPPE plus anthracycline/taxane chemotherapy
Type: in vivo, human
Description: In the neoadjuvant treatment of inflammatory or T3 to T4 breast cancer, the diphenyl compound preferably is used in an amount of about 3 to about 10 mg/kg of patient, administered intravenously over a period of about 30 to about 90 minutes prior to administration of the chemotherapeutic agents and continuing for the period of administration of the chemotherapy agent. In the specific Phase II clinical trial described herein, there was employed 6 mg/kg of DPPE in the form of its hydrochloride salt, administered intravenously as an aqueous solution thereof over 80 minutes, with the last twenty minutes being accompanied by infusion of the chemotherapeutic agents, followed by the intravenous administration of an aqueous solution at a dose of 2.5 mg/kg of DPPE for 180 minutes accompanied by the infusion of Taxol® or for 60 minutes accompanied by the infusion of Taxotere®. The chemotherapy agents which are employed herein preferably are used in a total amount of 75 to about 225 mg/M^2 of patient consistent with the identity of the chemotherapy agent. The chemotherapeutic agents may be administered in an amount of about 50 to about 60 mg/M^2 of patient for doxorubicin or epirubicin, about 175 to about 225 mg/M^2 of Taxol® and about 75 to about 100 mg/M^2 of Taxotere®. In the specific Phase II clinical trial described herein, there was employed 50 mg/M^2 of doxorubicin or epirubicin, and 175 mg/M^2 of Taxol® or 75 mg/M^2 of Taxotere®, administered over the last 20 minutes of infusion of the DPPE solution and over a further 180 minutes for Taxol® or 60 minutes for Taxotere®, accompanied by infusion of a 2.5 mg/kg of DPPE solution. As noted above, patients with inflammatory breast cancer or T3 to T4 breast cancer are subjected to a number of cycles of chemotherapy at predetermined intervals to reduce the size of the tumor to an operable size. The number of cycles for each patient is generally about 5 to about 8 cycles, with about 21 to about 28 days between each cycle. In the Phase II clinical trial, patients were subjected to 6 cycles at time intervals of 21 days. A Phase II clinical trial was carried out in which patients (N=8) with inflammatory (N=7) and T3 to T4 (N=1) breast cancer were treated with a combination of DPPE and epirubicin (EPI)/Taxol® (N=5), a combination of DPPE and doxorubicin (DOX)/Taxol® (N=2) and DPPE and a combination of DPPE and epirubicin/Taxotere® (N=1). DPPE was administered at a dose of […] over 80 minutes with a combination of epirubicin or doxorubicin at a dose of 50 mg/M^2 and Taxol® at a dose of 175 mg/M^2 or Taxotere® at a dose of 75 mg/M^2 over the last 20 minutes and during a further 180 minutes for Taxol® or 60 minutes for Taxotere®, at a dose of 2.5 mg/kg. The treatment was repeated at 21 day intervals for 6 cycles. The eight patients with inflammatory or T3 to T4 breast cancer had no previous chemo- or radiotherapy. When the chemotherapy cycles were complete, the cancerous tissue was removed and the patients observed. The results obtained are shown in Table I. In this Table, the abbreviation TTP stands for time to progression and the abbreviation OS stands for overall survival. […] This patient remains disease-free at 55+ months.

[1] = 8 patients pooled: 5 DPPE/EPI/TAXOL, 2 DPPE/DOX/TAXOL, 1 DPPE/EPI/TAXOTERE
[2] = number of patients of 8, first figure of cell, same regimens
[3] = number of patients of 8, second figure of cell, marked *, same regimens

## CCN(CC)CCOc1ccc(Cc2ccccc2)cc1 [DPPE, N,N-diethyl-2-[4-(phenylmethyl)-phenoxy]ethanamine]
[1]
  OS (overall survival), median: 43+ mos.
  TTP (time to progression), median: 21 mos.
DPPE along with doxorubicin/epirubicin and Taxol/Taxotere
  overall outcome of trial: effective neoadjuvant treatment which lead to long term survival post surgery
Number of patients of 8, first figure of cell (not marked as pathological criteria), DPPE 6 mg/M^2 over 80 min + epirubicin or doxorubicin 50 mg/M^2 + Taxol 175 mg/M^2 or Taxotere 75 mg/M^2, 6 cycles at 21 day intervals
  Response CR: 4
[2]
  Response NR: 1
  Response PR: 3
Number of patients of 8, second figure of cell, marked * (pathological criteria), same regimens
  Response CR, pathological criteria: 2
[3]
  Response NR, pathological criteria: 2
  Response PR, pathological criteria: 4
Third patient, only high-grade cells on cytology
  response of individual patient: clinical/pathological complete remission
Third patient, with complete remission
  disease-free time of individual patient: ≥ 55 months
Two long-term survivors with mixed high-grade tumors pre-treatment
  high-grade tumor component post-surgery: no high-grade component post-surgery
Two patients with mixed high-grade tumors pre-treatment
  survival of individual long-term survivors: ≥ 45 months and ≥ 53 months
